Assay: Pharmacokinetic test in SD rats
Assay type: in vivo
Details: male, plasma, rat, iv, 1 mg/kg; for Vd: read-out: Vss
Procedure: Experimental animals: 4 healthy adult male SD rats (purchased from Hunan SJA Laboratory Animal Co., Ltd) were divided into two groups, […].
Drug preparation: a certain amount of the compound of the present disclosure or MYK461 is weighted, and 10% DMSO, 10% Kolliphor HS15 and 80% saline are added to prepare the compound solution with target concentration.
Administration and sample collection: the animals fasted for 12 h before administration, ate in 3 h after administration, and were administered by intravenous administration (IV, 1 mg/kg) through the posterior limb vein of SD rats and orally intragastric administration (PO, 5 mg/kg), respectively. Then, blood samples were collected from the tail vein of rats at time points of 0, 0.083, 0.25, 0.5, 1, 2, 4, 6, 8, and 24 h, respectively, and the blood volume was about 200-400 μL/time point. After collecting whole blood at each time point, the blood samples were placed in K2EDTA anticoagulant test tubes, which were placed in an incubator with ice packs for preservation. All the samples were centrifuged at 4600 r/min at 4° C. for 5 min within 15 min to obtain plasma. The concentrations of different compounds in rat plasma after administration were determined by LC/MS/MS method. Pharmacokinetic parameters were calculated according to the drug concentration-time curve.

Row | AUC(0-inf) [ng·h/mL] | AUC(0-t) [ng·h/mL] | Cmax [ng/mL] | MRT inf [h] | Tmax [min] | clearance [mL/min/kg] | half-life [h] | Vd [L/kg] | Structure (SMILES)
1 | 6830 | 3670 | 883 | 31.1 | 4.98 | 2.44 | 22.6 | 4.56 | [2H]c1c([2H])c([2H])c([C@H](C)Nc2cc(=O)n(C(C)C)c(=O)[nH]2)c([2H])c1[2H] [Example 1, (S)-3-isopropyl-6-((1-(phenyl-d5)ethyl)amino)pyrimidine-2,4(1H,3H)-dione]
2 | 4670 | 3290 | 643 | 18.8 | 4.98 | 3.57 | 13.9 | 4.03 | [2H]c1ccc([C@H](C)Nc2cc(=O)n(C(C)C)c(=O)[nH]2)cc1 [Example 2, (S)-3-isopropyl-6-((1-(phenyl-4-d)ethyl)amino)pyrimidine-2,4(1H,3H)-dione]
3 | 5690 | 4450 | 982 | 14.8 | 4.98 | 2.93 | 11.3 | 2.6 | [2H]C([2H])([2H])C(n1c(=O)cc(N[C@@H](C)c2ccccc2)[nH]c1=O)C([2H])([2H])[2H] [Example 5, (S)-6-((1-phenylethyl)amino)-3-(propane-2-yl-1,1,1,3,3,3-d6)pyrimidine-2,4 (1H,3H)-dione]
4 | 3090 | 2420 | 393 | 15.1 | 4.98 | 5.39 | 11.6 | 4.87 | CC(C)n1c(=O)cc(N[C@@H](C)c2ccccc2)[nH]c1=O [MYK461, reference compound]
